Assay in all cases: relative viability (nuclei count vs DMSO), 5 days (fraction); higher = more cells survive
Compound in assay [1]: CS(=O)(=O)N1CCN(Cc2cc3nc(-c4cccc5[nH]ncc45)nc(N4CCOCC4)c3s2)CC1 [Pictilisib] + CC(=O)Nc1cccc(-n2c(=O)n(C3CC3)c(=O)c3c(Nc4ccc(I)cc4F)n(C)c(=O)c(C)c32)c1 [Trametinib] (partner 0.02 µM)
The method, boiled down:
(§1)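 Five library-drug doses in √10 steps were combined with a fixed anchor-drug dose, or a single drug was given alone, by pin tool to lung cancer cell lines in 1536-well plates the day after seeding. Nuclei were stained and counted after 5 days. Relative viability is the nuclei count in treated wells over that in vehicle wells, taken as the median of duplicate plates.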

Compound in assay [2]: NC1(c2ccc(-c3nc4ccn5c(=O)[nH]nc5c4cc3-c3ccccc3)cc2)CCC1 [MK-2206] + CS(=O)(=O)N1CCN(Cc2cc3nc(-c4cccc5[nH]ncc45)nc(N4CCOCC4)c3s2)CC1 [Pictilisib] (partner 1 µM)
The method, boiled down: as §1

Compound in assay [3]: CS(=O)(=O)N1CCN(Cc2cc3nc(-c4cccc5[nH]ncc45)nc(N4CCOCC4)c3s2)CC1 [Pictilisib] + Nc1nc2[nH]cc(CCc3ccc(C(=O)N[C@@H](CCC(=O)O)C(=O)O)cc3)c2c(=O)[nH]1 [Pemetrexed] (partner 0.2 µM)
The method, boiled down: as §1

Compound in assay [4]: NC1(c2ccc(-c3nc4ccn5c(=O)[nH]nc5c4cc3-c3ccccc3)cc2)CCC1 [MK-2206] + CC(=O)c1c(C)c2cnc(Nc3ccc(N4CCNCC4)cn3)nc2n(C2CCCC2)c1=O [Palbociclib] (partner 0.5 µM)
The procedure, abridged:
as §1

Compound in assay [5]: NC1(c2ccc(-c3nc4ccn5c(=O)[nH]nc5c4cc3-c3ccccc3)cc2)CCC1 [MK-2206] + CC(C)C[C@H](NC(=O)[C@H](Cc1ccccc1)NC(=O)c1cnccn1)B(O)O [Bortezomib] (partner 0.002 µM)
The procedure, abridged: as §1

As to HCC-78, the relative viability came to 0.681 in assay [1] (first compound 0.02 µM); 0.561 in assay [1] (first compound 0.06325 µM); 0.404 in assay [1] (first compound 0.6325 µM); 0.281 in assay [1] (first compound 2 µM); 0.25 in assay [2] (first compound 0.01 µM); 0.202 in assay [2] (first compound 0.03162 µM). Moreover, the relative viability in assay [2] (first compound 0.3162 µM) came out at 0.204; in assay [2] (first compound 1 µM), 0.162; in assay [3] (first compound 0.02 µM), 0.894; in assay [3] (first compound 0.06325 µM), 0.911; in assay [3] (first compound 0.6325 µM) it was 0.861; in assay [3] (first compound 2 µM), 0.893. The relative viability in assay [4] (first compound 0.01 µM) was 0.426; in assay [4] (first compound 0.03162 µM), 0.489; in assay [4] (first compound 0.3162 µM), 0.496; in assay [4] (first compound 1 µM), 0.398; in assay [5] (first compound 0.01 µM), 0.415; in assay [5] (first compound 0.03162 µM), 0.606. The relative viability in assay [5] (first compound 0.3162 µM) is 0.475; in assay [5] (first compound 1 µM), 0.395.
As to HCC-366, the relative viability in assay [1] (first compound 0.02 µM) worked out at 0.374; in assay [1] (first compound 0.06325 µM), 0.2; in assay [1] (first compound 0.6325 µM) it was 0.157; in assay [1] (first compound 2 µM) it was 0.0661; in assay [2] (first compound 0.01 µM) it was 0.19; in assay [2] (first compound 0.03162 µM) it was 0.124. The relative viability in assay [2] (first compound 0.3162 µM) was 0.126; in assay [2] (first compound 1 µM), 0.12; in assay [3] (first compound 0.02 µM) it was 0.172; in assay [3] (first compound 0.06325 µM), 0.195; in assay [3] (first compound 0.6325 µM), 0.248; in assay [3] (first compound 2 µM) it was 0.122. In addition, the relative viability in assay [4] (first compound 0.01 µM) amounted to 0.392; in assay [4] (first compound 0.03162 µM), 0.38; in assay [4] (first compound 0.3162 µM), 0.225; in assay [4] (first compound 1 µM), 0.244; in assay [5] (first compound 0.01 µM), 1.01; in assay [5] (first compound 0.03162 µM), 0.982. Moreover, the relative viability in assay [5] (first compound 0.3162 µM) was determined as 1.04; in assay [5] (first compound 1 µM), 1.02.
On to HCC-827, for which the relative viability came to 0.519 in assay [1] (first compound 0.02 µM); 0.422 in assay [1] (first compound 0.06325 µM); 0.378 in assay [1] (first compound 0.6325 µM); 0.235 in assay [1] (first compound 2 µM); 0.982 in assay [2] (first compound 0.01 µM); 1.11 in assay [2] (first compound 0.03162 µM). Further, the relative viability in assay [2] (first compound 0.3162 µM) is 0.899; in assay [2] (first compound 1 µM), 1.01; in assay [3] (first compound 0.02 µM) it was 0.265; in assay [3] (first compound 0.06325 µM) it was 0.28; in assay [3] (first compound 0.6325 µM) it was 0.196; in assay [3] (first compound 2 µM), 0.221. The relative viability turned out to be 0.568 in assay [4] (first compound 0.01 µM); 0.542 in assay [4] (first compound 0.03162 µM); 0.292 in assay [4] (first compound 0.3162 µM); 0.344 in assay [4] (first compound 1 µM); 0.98 in assay [5] (first compound 0.01 µM); 1.06 in assay [5] (first compound 0.03162 µM). Further, the relative viability is 1.09 in assay [5] (first compound 0.3162 µM) and 1.03 in assay [5] (first compound 1 µM).
For HOP-62, the relative viability in assay [1] (first compound 0.02 µM) worked out at 0.396; in assay [1] (first compound 0.06325 µM), 0.356; in assay [1] (first compound 0.6325 µM) it was 0.332; in assay [1] (first compound 2 µM) it was 0.178; in assay [2] (first compound 0.01 µM), 0.563; in assay [2] (first compound 0.03162 µM), 1.11. Also, the relative viability in assay [2] (first compound 0.3162 µM) came to 0.728; in assay [2] (first compound 1 µM), 0.48; in assay [3] (first compound 0.02 µM) it was 0.319; in assay [3] (first compound 0.06325 µM), 0.271; in assay [3] (first compound 0.6325 µM), 0.267; in assay [3] (first compound 2 µM), 0.271. Moreover, the relative viability in assay [4] (first compound 0.01 µM) came to 0.407; in assay [4] (first compound 0.03162 µM) it was 0.468; in assay [4] (first compound 0.3162 µM), 0.452; in assay [4] (first compound 1 µM) it was 0.485; in assay [5] (first compound 0.01 µM), 0.726; in assay [5] (first compound 0.03162 µM), 0.759. For the same cell line, the relative viability was found to be 0.429 in assay [5] (first compound 0.3162 µM) and 0.743 in assay [5] (first compound 1 µM).
As to IA-LM, the relative viability in assay [2] (first compound 0.01 µM) came to 0.299; in assay [2] (first compound 0.03162 µM), 0.256; in assay [2] (first compound 0.3162 µM), 0.26; in assay [2] (first compound 1 µM) it was 0.141; in assay [5] (first compound 0.01 µM), 0.868; in assay [5] (first compound 0.03162 µM), 0.928. In addition, the relative viability is 0.887 in assay [5] (first compound 0.3162 µM) and 0.699 in assay [5] (first compound 1 µM).
With LK-2, the relative viability amounted to 0.738 in assay [1] (first compound 0.02 µM); 0.654 in assay [1] (first compound 0.06325 µM); 0.558 in assay [1] (first compound 0.6325 µM); 0.257 in assay [1] (first compound 2 µM); 0.684 in assay [2] (first compound 0.01 µM); 0.707 in assay [2] (first compound 0.03162 µM). The relative viability in assay [2] (first compound 0.3162 µM) is 0.583; in assay [2] (first compound 1 µM), 0.667; in assay [3] (first compound 0.02 µM) it was 0.247; in assay [3] (first compound 0.06325 µM), 0.281; in assay [3] (first compound 0.6325 µM), 0.116; in assay [3] (first compound 2 µM), 0.14. The relative viability in assay [4] (first compound 0.01 µM) came to 0.605; in assay [4] (first compound 0.03162 µM) it was 0.881; in assay [4] (first compound 0.3162 µM), 0.68; in assay [4] (first compound 1 µM) it was 0.457.
As to NCI-H358, the relative viability in assay [1] (first compound 0.02 µM) came to 0.132; in assay [1] (first compound 0.06325 µM) it was 0.141; in assay [1] (first compound 0.6325 µM), 0.122; in assay [1] (first compound 2 µM), 0.104; in assay [2] (first compound 0.01 µM) it was 0.378; in assay [2] (first compound 0.03162 µM) it was 0.333. For the same cell line, the relative viability amounted to 0.355 in assay [2] (first compound 0.3162 µM); 0.347 in assay [2] (first compound 1 µM); 0.172 in assay [3] (first compound 0.02 µM); 0.165 in assay [3] (first compound 0.06325 µM); 0.161 in assay [3] (first compound 0.6325 µM); 0.133 in assay [3] (first compound 2 µM). Further, the relative viability amounted to 0.16 in assay [4] (first compound 0.01 µM), 0.124 in assay [4] (first compound 0.03162 µM), 0.138 in assay [4] (first compound 0.3162 µM) and 0.141 in assay [4] (first compound 1 µM).
Turning to NCI-H522, the relative viability was determined as 0.884 in assay [1] (first compound 0.02 µM); 0.721 in assay [1] (first compound 0.06325 µM); 0.572 in assay [1] (first compound 0.6325 µM); 0.43 in assay [1] (first compound 2 µM); 1.08 in assay [3] (first compound 0.02 µM); 1.1 in assay [3] (first compound 0.06325 µM). For the same cell line, the relative viability in assay [3] (first compound 0.6325 µM) amounted to 0.796; in assay [3] (first compound 2 µM), 0.481; in assay [4] (first compound 0.01 µM), 1.04; in assay [4] (first compound 0.03162 µM) it was 1.12; in assay [4] (first compound 0.3162 µM), 1.05; in assay [4] (first compound 1 µM), 1.09.
As for NCI-H596, the relative viability in assay [1] (first compound 0.02 µM) was found to be 0.795; in assay [1] (first compound 0.06325 µM), 0.764; in assay [1] (first compound 0.6325 µM) it was 0.515; in assay [1] (first compound 2 µM) it was 0.327; in assay [2] (first compound 0.01 µM) it was 0.446; in assay [2] (first compound 0.03162 µM), 0.386. The relative viability in assay [2] (first compound 0.3162 µM) is 0.324; in assay [2] (first compound 1 µM), 0.345; in assay [3] (first compound 0.02 µM) it was 0.472; in assay [3] (first compound 0.06325 µM) it was 0.508; in assay [3] (first compound 0.6325 µM), 0.509; in assay [3] (first compound 2 µM), 0.318. The relative viability in assay [5] (first compound 0.01 µM) was 1.07; in assay [5] (first compound 0.03162 µM) it was 1.09; in assay [5] (first compound 0.3162 µM), 0.964; in assay [5] (first compound 1 µM), 0.648.

(Values after the supplement of paper PMC10307832.)
